Results: patent publication US6489321B1, “Nonpeptide substituted benzothiazepines as vasopressin antagonists” (Ortho-McNeil Pharmaceutical, Inc., priority 1999, dated 2002)

Columns and labels:
vasopressin V1a receptor = vasopressin V1a receptor (Homo sapiens, UniProt P37288); test: In-vitro vasopressin receptor binding assay, V1a; conditions: for IC50: footnote 1: IC50 values (μM)
cloned human V2 receptor = target: T1, cloned human V2 receptor (Homo sapiens, UniProt P30518); test: In-vitro vasopressin receptor binding assay, V2; conditions: 3H-arginine-8-vasopressin; for IC50: footnote 1: IC50 values (μM)
T1 construct: expressed in transfected cells
Experimental: Assay buffer is 50 mM Tris-Cl, 5 mM MgC12, 0.1% BSA (pH 7.5) containing 5 ug/ml of aprotinin, leupeptin, pepstatin, 50 ug/ml bacitracin, and 1 mM Pefabloc. H3 vasopressin is ^3H-arginine-8-vasopressin (68.5 Ci/mmol, final concentration in assay is 0.65-0.75nM). Into wells of 96-well round bottom polypropylene plates are added buffer, test compound, membrane (containing cloned human V2 receptor), and H3 vasopressin. The reaction plates are allowed to sit at room temperature for one hour. The samples are filtered through Unifilter GF/C plates (presoaked in 0.3 polyethyleneimine). The plates are washed 5 times with cold physiological saline containing 0.05% Tween 20. After drying, the bottom of the filter plates are sealed and 0.025 ml of Microscint-20 is added to each filter. The top of the plate is sealed, and the plate is counted. Non-specific binding is determined by the addition of 1.25 uM arginine-8-vasopressin in those wells. %Inh. is [formula]

vasopressin V1a receptor, sequence (P37288 whole entry): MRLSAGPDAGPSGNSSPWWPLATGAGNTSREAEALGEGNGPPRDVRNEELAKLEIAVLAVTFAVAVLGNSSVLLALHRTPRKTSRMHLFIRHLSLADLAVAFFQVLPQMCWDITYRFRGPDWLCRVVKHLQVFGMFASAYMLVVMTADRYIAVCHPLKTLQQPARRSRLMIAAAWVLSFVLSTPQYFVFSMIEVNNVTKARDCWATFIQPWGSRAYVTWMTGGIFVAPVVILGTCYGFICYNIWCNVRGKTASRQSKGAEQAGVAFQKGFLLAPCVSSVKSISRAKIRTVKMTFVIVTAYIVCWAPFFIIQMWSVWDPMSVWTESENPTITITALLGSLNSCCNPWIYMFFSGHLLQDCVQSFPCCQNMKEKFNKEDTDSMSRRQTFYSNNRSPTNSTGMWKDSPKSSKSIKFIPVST

2-(2-Aminoethyl)-5-[4-(2-phenylbenzoylamino)benzoyl]-1,5-benzothiazepine [Compound 28]
Receptor Binding (% Inh. @ concentration in μM) V1a (vasopressin V1a receptor; 0.1 μM test compound): 19% @ .1 | Receptor Binding (% Inh. @ concentration in μM) V2 (cloned human V2 receptor; 0.1 μM test compound): 46% 0.1

2-(2-Hydroxyethyl)-5-(4-(2-phenylbenzoylamino)-pyridinoyl)-1,5-benzothiazepine [Compound 40]
Receptor Binding (% Inh. @ concentration in μM) V1a (vasopressin V1a receptor; 0.1 μM test compound): 22% @ .1 | IC50 (cloned human V2 receptor): 0.03 µM

2-(2-Hydroxyethyl)-5-(4-(2-phenylbenzoylamino)benzoyl)-1,5-benzothiazepine [Compound 26]
IC50 (vasopressin V1a receptor): 0.027 µM | IC50 (cloned human V2 receptor): 0.007 µM

2-(2-Hydroxyethyl)-5-(4-(2-phenylbenzoylamino)benzoyl)-1,5-benzothiazepine [Compound 27]
IC50 (vasopressin V1a receptor): 0.091 µM | IC50 (cloned human V2 receptor): 0.014 µM

2-(2-Hydroxyethyl)-5-(4-aminobenzenesulfonyl)-1,5-benzothiazepine [Compound 4]
Receptor Binding (% Inh. @ concentration in μM) V1a (vasopressin V1a receptor; 10 μM test compound): 21% @ 10 | Receptor Binding (% Inh. @ concentration in μM) V2 (cloned human V2 receptor; 10 μM test compound): 20% @ 10

2-(2-Hydroxyethyl)-5-[2-chloro-4-(2-methyl-5-fluorobenzoylamino)benzoyl]-1,5-benzothiazepine [Compound 43]
Receptor Binding (% Inh. @ concentration in μM) V1a (vasopressin V1a receptor; 0.1 μM test compound): 4% @ .1 | IC50 (cloned human V2 receptor): 0.028 µM

2-(2-Hydroxyethyl)-5-[4-(3,4-dichlorobenzoylamino)benzene-sulfonyl]-1,5-benzothiazepine [Compound 10]
Receptor Binding (% Inh. @ concentration in μM) V1a (vasopressin V1a receptor; 10 μM test compound): 0% @ 10 | IC50 (cloned human V2 receptor): 2.1 µM

2-(2-Methanesulfonylethyl)-5-(4-(2-methylbenzoylamino)benzoyl)-1,5-benzothiazepine [Compound 13]
IC50 (vasopressin V1a receptor): 0.3 µM | IC50 (cloned human V2 receptor): 0.2 µM

2-(2-Methanesulfonylethyl)-5-[(4-(2-phenylbenzoylamino)-benzenesulfonyl)]-1,5-benzothiazepine [Compound 20]
Receptor Binding (% Inh. @ concentration in μM) V1a (vasopressin V1a receptor; 1 μM test compound): 24% @ 1 | Receptor Binding (% Inh. @ concentration in μM) V2 (cloned human V2 receptor; 1 μM test compound): 6% @ 1

2-(2-Methanesulfonylethyl)-5-[(4-(2-phenylbenzoylamino)-benzyl)]-1,5-benzothiazepin-4-one [Compound 21]
Receptor Binding (% Inh. @ concentration in μM) V1a (vasopressin V1a receptor; 0.1 μM test compound): 5% @ 0.1 | Receptor Binding (% Inh. @ concentration in μM) V2 (cloned human V2 receptor; 0.1 μM test compound): 1% @ 0.1

2-(2-Methanesulfonylethyl)-5-[(4-(2-phenylbenzoylamino)benzoyl)]-1,5-benzothiazepine [Compound 16]
IC50 (vasopressin V1a receptor): 1.2 µM | IC50 (cloned human V2 receptor): 0.013 µM

2-[N-(tert-butoxycarbonyl)-ethyl]-5-[4-(2-methylbenzoylamino)-benzyl]-1,5-benzothiazepine-4-one [Compound 6]
Receptor Binding (% Inh. @ concentration in μM) V1a (vasopressin V1a receptor; 10 μM test compound): 13% @ 10 | Receptor Binding (% Inh. @ concentration in μM) V2 (cloned human V2 receptor; 10 μM test compound): 22% @ 10

CC(=O)Nc1ccc(S(=O)(=O)N2CCC(CCN(C)C)Sc3ccccc32)cc1 (stereo not drawn) [Compound 1]
Receptor Binding (% Inh. @ concentration in μM) V1a (vasopressin V1a receptor; 25 μM test compound): 14% @ 25 | Receptor Binding (% Inh. @ concentration in μM) V2 (cloned human V2 receptor; 25 μM test compound): 7% @ 25

Cc1ccccc1C(=O)Nc1ccc(S(=O)(=O)N2CCC(CCN(C)C)Sc3ccccc32)cc1 (stereo not drawn) [Compound 2, 2-(2-Dimethylaminoethyl)-5-(4-(2-methylbenzoylamino)-benzenesulfonyl]-1,5-benzothiazepine]
Receptor Binding (% Inh. @ concentration in μM) V1a (vasopressin V1a receptor; 25 μM test compound): 29% @ 25 | Receptor Binding (% Inh. @ concentration in μM) V2 (cloned human V2 receptor; 25 μM test compound): 34% @ 25

Cc1ccccc1C(=O)Nc1ccc(S(=O)(=O)N2CCC(CCN3CCOCC3)Sc3ccccc32)cc1 (stereo not drawn) [Compound 3, 2-[2-(N-Morpholino)-ethyl]-5-[4-(2-methylbenzoylamino)-benzenesulfonyl]-1,5-benzothiazepine]
Receptor Binding (% Inh. @ concentration in μM) V1a (vasopressin V1a receptor; 25 μM test compound): 47% @ 25 | Receptor Binding (% Inh. @ concentration in μM) V2 (cloned human V2 receptor; 25 μM test compound): 37% @ 25
